Reference: PMC5075098, “Preclinical Evaluation of the Stability, Safety, and Efficacy of CD101, a Novel Echinocandin” (Antimicrobial Agents and Chemotherapy, 2016)
In brackets after ≈: the same amount, converted by molar mass. Read-outs that look alike come from different tables or passages of the source. Starred links: 1 amine or outer side, 2 acyl side, 3 side chain; linkers in the order of their positions; H or OH if unused. Positions of bridges follow the written chain, without caps; N, C: chain ends. Non-standard residues stand in square brackets, D forms with d. Residues, ends and D or L forms follow the SMILES beside them. *: point of attachment. pTerphenylCO(4''-OnC5H11) = CCCCCOc1ccc(-c2ccc(-c3ccc(C(=O)*)cc3)cc2)cc1; Orn(4R-OH,5R-OH) = O=C([C@H](C[C@@H](O)[C@@H](O)N[*:3])N[*:1])[*:2]; hTyr(3S-OH,4S-OH) = N[C@H](C(=O)O)[C@H](O)[C@@H](O)c1ccc(O)cc1; Pro(3S-OH,4S-Me) = C[C@H]1CN[C@H](C(=O)O)[C@H]1O; Hyp = O=C(O)[C@@H]1C[C@@H](O)CN1

How the values were obtained:
[1] = Reactive metabolite screening (glutathione trapping); assay type: in vitro ADME; details: PBS pH 7.4, excess GSH, 37°C, LC with high-resolution MS
Procedure: Samples were diluted to 10 μg/ml into 50:50 acetonitrile-water with 0.1 formic acid. Samples were analyzed by LC (Agilent 1100) with high-resolution MS (Waters quadrupole time of flight [Q-TOF] Premier mass spectrometer with electrospray interface) with concurrent low- and high-energy scans to obtain full-scan parent and product fragment ions. The analytical column was a Phenomenex Kinetex (2.6-μm C18, 100 by 3.0 mm). Waters MassLynx 4.1 software was used for data analysis.

C. albicans R303 [2] = assay: Neutropenic mouse model of C. albicans infection, kidney colony counts
Procedure: Immunosuppression was induced by two intraperitoneal (i.p.) injections of cyclophosphamide at 150 mg/kg 4 days before and 100 mg/kg 1 day before inoculation. […] The animals in the fluconazole group were sacrificed 48 h after infection.

[3] = Plasma protein binding, ultracentrifugation; assay type: in vitro ADME; details: human, ∼500,000 × g 2.5 h at 37°C, LC-MS/MS, SEM, read-out: % of protein bound (SEM) (converted)
Procedure: Ultracentrifugation ([15]) was used to compare human plasma protein binding of CD101 and anidulafungin. […] Following ultracentrifugation, the supernatant was transferred to a microtiter plate containing 50 μl plasma for matrix-matching purposes and quenched with 400 μl of cold acetonitrile (ACN) with 0.1% formic acid containing diclofenac as an internal standard. Quenched samples were centrifuged for 5 min at 10°C (e.g., 3,100 rpm [2,000 × g]) to sediment the precipitated proteins, and 50 μl supernatant was transferred to a microtiter plate containing 100 μl of water prior to analysis by LC-MS/MS. The percentage bound was the difference between 100% and the percentage free (the ratio of the concentration in supernatant to the total concentration).

[4] = 2-week repeat-dose toxicity and hepatotoxicity screening; assay type: in vivo, Sprague-Dawley rats
Procedure: Dosing solutions were prepared in a vehicle comprising 5% mannitol containing 2.5% polysorbate 80 (Tween 80) in 0.3% acetic acid.
Animals were randomly assigned to dose groups and stratified by weight to achieve similar group mean body weights (males, 255 to 318 g; females, 192 to 215 g). Blood, urine, and liver samples (excised and preserved in 10% neutral buffered formalin) were obtained on day 15. Plasma liver enzyme levels were assessed. Liver tissues were processed to paraffin blocks and prepared for slides. Slides were stained with hematoxylin and eosin. Hematology data were collected using the Advia 120 hematology analyzer. Coagulation data were collected using the Diagnostica STA compact coagulation analyzer. Clinical chemistry data were collected using the AU400 chemistry analyzer. Qualitative and quantitative urinalysis was recorded using iRICELL 1500 UA analyzer. Clinical effects were assessed for determination of the maximum tolerated dose (MTD).
Statistical evaluations were performed on in-life and clinical pathology numerical data to determine statistical significance following a decision tree. First, the homogeneity of the data was determined by Bartlett's test. If the data were homogeneous, a one-way analysis of variance was performed to assess statistical significance. If statistically significant differences between the means were found, Dunnett's test was used to determine the degree of significance from the control means (P < 0.05, P < 0.01, and P < 0.001). If the data were nonhomogeneous, the Kruskal-Wallis nonparametric analysis was performed to assess statistical significance. If statistically significant differences between the means were found (P < 0.05, P < 0.01, and P < 0.001), the Mann-Whitney U test was used to determine the degree of significance from the control means (P < 0.05, P < 0.01, and P < 0.001).

[5] = test system: A. fumigatus (ATCC 13073); assay: Neutropenic mouse model of A. fumigatus infection, survival; details: BID for 5 days; CD101 all dose groups and anidulafungin 1 and 5 mg/kg i.v. (P < 0.05); amphotericin B 0.3 mg/kg i.p.
Procedure: Animals were immunosuppressed by three i.p. injections of cyclophosphamide (the first injection at 6 mg/mouse 3 days before inoculation and the second and third injections at 2 mg/mouse on 1 and 4 days after inoculation). […] Dose administration started 1 and 7 h after infection. […] An increase of 50% or more in the survival rate of the active groups compared to the vehicle group indicated significant antifungal efficacy.

[6] = after 44 h; cited from earlier work
From the text: CD101, a novel echinocandin being developed as a high-exposure, once-weekly intravenous (i.v.) formulation for the treatment and prevention of systemic fungal infections, was designed to be chemically and metabolically stable to avoid hepatotoxicity while retaining the antifungal activity of an echinocandin.

C. albicans R303 [7] = details: CLSI broth microdilution, read after 24 h at 35°C, prominent growth inhibition (∼50%)
Procedure: (§1) Enumeration of MIC and MEC assay inoculum viable counts was performed by plating aliquots of the starting assay inoculum on Sabouraud dextrose agar.

[8] = test system: A. fumigatus (ATCC 13073); assay: MEC/MIC, CLSI broth microdilution; details: 24 h at 35°C, rounded/compact hyphal morphology
Procedure: as §1

C. albicans R303 [9] = assay: microbe, parasite or virus in culture; details: Candida albicans, R303, 24 h
Procedure: as §1

[10] = anidulafungin 40 mg/kg/day i.v. 14 days, rats, relative to controls, P ≤ 0.001
[11] = anidulafungin 40 mg/kg/day i.v. 14 days, rats, P ≤ 0.001
[12] = anidulafungin 40 mg/kg/day i.v. 14 days, rats, P ≤ 0.01

CCCCCOc1ccc(-c2ccc(-c3ccc(C(=O)N[C@H]4C[C@@H](O)[C@@H](O)NC(=O)[C@@H]5[C@@H](O)[C@@H](C)CN5C(=O)[C@H]([C@@H](C)O)NC(=O)[C@H]([C@H](O)[C@@H](O)c5ccc(O)cc5)NC(=O)[C@@H]5C[C@@H](O)CN5C(=O)[C@H]([C@@H](C)O)NC4=O)cc3)cc2)cc1 [anidulafungin] ({pTerphenylCO(4''-OnC5H11)}-[Orn(4R-OH,5R-OH)]T[Hyp][hTyr(3S-OH,4S-OH)]T[Pro(3S-OH,4S-Me)]; lactam 1-C)
GSH adduct formation (reactive intermediate) [1]: did form a GSH adduct | log reduction in CFU per gram relative to vehicle (C. albicans R303 [2]; 0.6 mg/kg single i.v. dose, 24, 48, 72 h): up to 2.7 log | antimicrobial effect (≥99%, 2-log reduction in CFU per gram) (C. albicans R303 [2]; anidulafungin 0.6 mg/kg i.v., at 24 and 48 h): significant | fraction unbound ([3]; 1 μg/ml): 0.022 | fraction unbound ([3]; 5 μg/ml): 0.014 | repeat-dose systemic or target organ toxicity ([4]; 14-day i.v. infusion, rats, CD101 20 mg/kg/day, anidulafungin 40 mg/kg/day (comparable exposure)): severe hemolytic anemia and liver toxicity | spleen finding upon necropsy ([4]; anidulafungin 40 mg/kg/day i.v. 14 days, rats): dark and enlarged spleens | increase in mean alkaline phosphatase (ALP) [4, 10]: up to 47% | increase in mean aspartate aminotransferase (AST) [4, 10]: up to 68% | increase in total bilirubin [4, 10]: up to 2 fold | increase in mean alanine transaminase (ALT) ([4]; anidulafungin 40 mg/kg/day i.v. 14 days, rats, relative to controls, P ≤ 0.05): up to 27% | decrease in the albumin/globulin ratio [4, 11]: up to 15% | increases in platelets [4, 11]: up to 44% | increases in reticulocyte (polychromasia), neutrophil, and eosinophil counts [4, 11]: up to 4 fold | decreases in activated partial thromboplastin time [4, 12]: up to 23% | decreases in red blood cells (RBC), hemoglobin, and hematocrit [4, 12]: up to 19% | increases in globulin [4, 12]: up to 19% | increases in serum cholesterol [4, 12]: up to 52% | reduced body weights and food consumption, decrease relative to controls ([4]; anidulafungin 40 mg/kg/day i.v. infusion 14 days, rats, P ≤ 0.05): up to 9% | microscopic changes in the liver ([4]; day 15, H&E, CD101 2, 6, or 20 mg/kg/day, anidulafungin 40 mg/kg/day (some of the females)): minimal to moderate single-cell necrosis affecting the hepatocytes | 10-day survival rate compared to the vehicle group [5]: significant increase | % remaining in human plasma [6]: 7% | MIC (C. albicans R303 [7]): 0.03 µg/mL (≈ 0.0263 µM) | MEC [8]: 0.004 µg/mL

OC(Cn1cncn1)(Cn1cncn1)c1ccc(F)cc1F [fluconazole, reference compound]
reduction in CFU per gram of paired kidneys relative to vehicle (C. albicans R303 [2]; 20 mg/kg oral, 2 h after infection, 48 h): 87% | log reduction in CFU per gram relative to vehicle (C. albicans R303 [2]; 20 mg/kg oral, 48 h): 1.1 log | MIC (C. albicans R303 [9]): 2 µg/mL (≈ 6.53 µM)

C[C@@H]1[C@H](O)[C@@H](C)/C=C/C=C/C=C/C=C/C=C/C=C/C=C/[C@H](O[C@@H]2O[C@H](C)[C@@H](O)[C@H](N)[C@@H]2O)C[C@@H]2O[C@](O)(C[C@@H](O)C[C@@H](O)[C@H](O)CC[C@@H](O)C[C@@H](O)CC(=O)O[C@H]1C)C[C@H](O)[C@H]2C(=O)O [amphotericin B, reference compound]
10-day survival rate compared to the vehicle group [5]: significant increase
